Measured values published in patent publication US11590110B2, “Compositions and methods for reactivating latent immunodeficiency virus using a GSK-3 inhibitor” (priority 2017, dated 2023).
Entries after “also recorded” stand apart in the source; their conditions may differ.

Tests used:
[1] = system: latent HIV in CD4+ T cells from HIV-1-infected individuals on suppressive ART; assay: Example 1: reactivation of latent HIV, viral mRNA in culture supernatant by ddPCR; settings: 48 hours
NK cells = assay: Example 5: NK cell viability and cytotoxic effector functions; format: cell-based, human
Method: Density centrifugation using a Ficoll-Hypaqua gradient was performed to purify PBMCs from continuous-flow centrifugation leukapheresis product. Subsequently, cells were plated in 96-well U-bottom plated in complete RPMI, which was supplemented with 10 ng/ml recombinant IL-15 (R&D systems), treated with LRAs or vehicle controls (DMSO) and incubated at 37° C., 5% CO2 for 48 h. To assay NK cell functionality, cells were analyzed by flow cytometry. Briefly, 1×10^6 cells/200 ul were stained with FITC anti-CD107 antibodies (1:50, BD Biosciences), mixed with 1×10^5 K562 cells and incubated at 37° C., 5% CO2 for 1 h. Then, in order to enhance intracellular cytokine staining, protein transport was blocked with Brefeldin A (Sigma-Aldrich) and golgi stop (BD Biosciences) according to the manufacturer instructions and the cells were incubated at 37° C., 5% CO2 for another 5 h. Afterwards, cells were spun down (5 min, 330×g, RT), the supernatant was removed and the cells were stained using Zombie violet (1:50, Biolegend) according to the manufacturer protocol. Subsequently, cells were stained for surface proteins staining with the following antibodies: APC/Cy7 anti CD3 (1:100, Biolegend), APC anti CD14 (1:100, Biolegend), APC anti CD19 (1:100, Biolegend), PE/Cy7 anti CD56 (1:100, BD Biosciences), Alexa Fluor 700 anti CD16 (1:100, Biolegend), PE anti CD7 (1:50, Thermo Fisher Scientific) for 15 min at room temperature. Next, cells were permeabilized and fixed using the Foxp3/Transcription Factor Fixation/Permeabilization Concentrate and Diluent kit (eBioscience) and stained intracellularly with PerCP/Cy5 anti IFN-γ (1:50, BD Bioscience) in FOXP3 perm/wash buffer for 1 h at 4° C. Finally, cells were washed and fixed in 1% paraformaldehyde/PBS, and subjected to flow cytometry analysis on a LSRII (BD Biosciences). Data were obtained using FlowJo software (Treestar). Samples were gated for singlets, live, CD3 negative, CD14/CD19 negative and CD7 positive cells as previously described (York, Milush). CD16high/CD56dim, CD16dim/CD56high cells were considered for analysis of IFN-γ and CD107a positivity. All gates were defined, based on fluorescence minus one (FMO) samples.

NF-κB (p65) [2] = assay: Example 5: NF-κB (p65) binding with target DNA sequences, ELISA; format: cell-based, human; settings: 1 μM
Method: To determine the specific NF-κB p65 DNA binding activity of treated CD4^+ T cells, an aliquot of the same nuclear extracts used for the p65/TBP western blots were submitted to the Transcription Factor Assay kit (Abcam, catalogue no. ab133112). Following the manufactures instructions sequentially, nuclear extracts were incubated in the TFA 96 well plate coated with double strand DNA NF-κB oligos. The wells were washed then incubated with primary anti-p65 antibody that is then detected by incubation with HRP conjugated secondary antibody. Developing reagents are added and absorbance is read at 450 nm. The level of absorbance indicates the DNA binding activity. For each donor experiment, binding specificity controls include a NF-κB competitor dsDNA control well and a non-specific binding control well. The assay was performed on 3 different donor samples.

[3] = system: AKT/mTOR pathway in CD4+ T cells; assay: Example 5: phosphoproteomics (mass spectrometry) and GO enrichment analysis; format: cell-based, human; settings: 1 μM; 15 minutes
Method: Cells were lysed in a buffer containing 8M urea, 100 mM Tris pH 8.0, 150 mM NaCl, and protease inhibitors (Roche Complete tablet). Lysates were reduced with 4 mM TCEP for 30 minutes at room temperature and alkylated with 10 mM iodoacetamide for 30 minutes at room temperature in the dark. Samples were diluted 1:4 in 100 mM Tris pH 8.0 to reduce urea concentration to 2M and digested with trypsin (1:100 enzyme:substrate ratio) overnight at 37 degrees Celsius. Peptides were desalted with SepPak C 18 solid phase extraction (Waters) according the manufacturer's specifications and lyophilized to dryness. Phosphopeptides were purified using an immobilized metal affinity chromatography approach.
Samples were analyzed on a Thermo Scientific LTQ Orbitrap Elite MS system equipped with an Easy nLC-1000 HPLC and autosampler system that is capable of maintaining back pressures of up to 10,000 psi for high resolution chromatographic separations. The HPLC interfaces with the MS system via a nanoelectrospray source.
Samples were injected onto a C18 reverse phase capillary column (75 um inner diameter×25 cm length, packed with 1.9 um C18 particles). Peptides were then separated by an organic gradient from 5% to 30% ACN in 0.1% formic acid over 180 minutes at a flow rate of 300 nl/min. The MS continuously collected spectra in a data-dependent fashion over the entire gradient.
Raw mass spectrometry data were analyzed using the MaxQuant software package (version 1.3.0.5). Data were matched to the SwissProt human reference sequence database. MaxQuant was configured to generate and search against a reverse sequence database for false discovery rate calculations. […] For MS/MS matching, a mass tolerance of 0.5 Da was allowed and the top 6 peaks per 100 Da were analyzed. […]
The MaxQuant-analyzed data were subsequently analyzed using an in-house computational pipeline for statistical analysis of relative quantification with fixed and/or mixed effect models, implemented in the MSstats Bioconductor package (version 3.3.10). […]

NF-κB (p65) [4] = assay: Example 5: NF-κB p65 nuclear translocation, western blot of nuclear extracts; format: cell-based, human; settings: 1 μM tideglusib or anti-CD3/CD28 coated beads; CD4+ T cells of three HIV-negative participants
Method: Nuclear extracts were prepared from purified CD4^+ T cells using the NE-PER Nuclear and Cytoplasmic Extraction reagent supplemented with protease inhibitor cocktail, as specified by the manufacturers protocol (Thermoscientific, catalogue no. 78833). Protein concentration of extracts was determined by Biorad protein assay (Biorad, catalogue no. 5000001). Nuclear extracts were resolved by electrophoresis on a 10% SDS-polyacrylamide gel using 15 μg of protein per condition and then transferred to PVDF membrane. Membranes were immunoblotted with primary antibodies for p65 (Cell signal Tech., catalogue no. 8242) and TATA binding protein (Abcam, catalogue no. ab63766); primary antibodies were diluted at 1:1000. Detection of primary antibodies was achieved by incubation with HRP conjugated secondary antibody. Bands were visualized by chemiluminescent detection using Immobilon Forte Western HRP ECL substrate (Millipore, catalogue no. WBLUF0100) followed by exposure to hyperfilm ECL (GE/Amersham, catalogue no. 45001508).

patient CD4+ T cells = assay: Example 7: viability of patient CD4+ T cells, Cell-titer blue; settings: 48 h
[5] = pre-treatment 1 μM 48 hours, then K562 cells

O=c1sn(-c2cccc3ccccc23)c(=O)n1Cc1ccccc1 [Tideglusib, 4-benzyl-2-(naphthalen-1-yl)-1,2,4-thiadiazolidine-3,5-dione]
induction of viral mRNA in culture supernatant, highest single donor ([1]; 1 μM, one donor): up to 60 fold | average increase in viral mRNA released into the culture supernatant compared to untreated control ([1]; 1 μM, vs DMSO-treated cells): 30 fold | reactivation of latent HIV from CD4+ T cells upon ex vivo treatment [1]: high level of reactivation; also recorded: even greater than that demonstrated with SB-216763 | viability of NK cells (NK cells; 48 hours): did not reduce viability | IFN-γ production in NK cells (NK cells; [5]): increase in IFN-γ production | increase of surface expression of CD107a in NK cells (NK cells; [5]): less marked | p65/DNA binding (NF-κB (p65) [2]): time-dependent increase | GO enrichment analysis of treated vs untreated phosphoproteomics results [3]: activation of TCR signaling (data not shown), together with overall spliceosome complex activity, transcription activation, mRNA processing and EGFR signaling | phosphoproteomics: GSK-3β and TSC2 [3]: confirmed inhibition of GSK-3β and TSC2 | phosphoproteomics: Rictor [3]: revealed phosphorylation of Rictor on T1295 | time of peak p65 nuclear translocation (NF-κB (p65) [4]): 60 min | toxicity based on cell-titer blue testing (patient CD4+ T cells): Neither tideglusib nor SB216763 induced toxicity
